A melting point compilation (Tetko et al.)

Compound | melting point [°C]
CCCCCCCCCCc1cc(-c2cc(-c3ccccc3)c3ccccc3n2)sc1-c1sc(-c2cc(-c3ccccc3)c3ccccc3n2)cc1CCCCCCCCCC | 21.9
O=C(NCCO[N+](=O)[O-])c1cccnc1 | 92.5
CCCCCCCCCCCCCCCC(C)CC (configuration not stated) | 1
CC(C)(O)C12CC3CC(CC(C3)C1)C2 | 75
O=[N+]([O-])c1ccc(Cl)nc1Cl | 64
CC(=O)Oc1cc(C(C)C)c(OCCN(C)C)cc1C | 144
OC1OC2COC(c3ccccc3)OC2C(O)C1O (configuration not stated) | 173 to 174
NC(=O)[C@@H]1CC=CC[C@H]1N (relative stereo) | 163 to 167
Cc1cc2ncc(S(=O)(=O)C(C)(C)C)c(N)n2n1 | 206 to 208
Nc1c(C(=O)O)cnc2c(C(=O)O)cnn12 | 256
CC1=CC(=O)NS(=O)(=O)O1 | 123
NC(=O)c1ccc(F)cc1F | 161
Nc1nc(N)nc(Cl)n1 | 320
CC(=O)CC(C)=O | -23
Cn1cc(C=O)c(N)n1 | 133 to 134
CCCCCCCCCC(=O)OC(=O)CCCCCCCCC | 24.7
CC(=O)C12OC(C)(c3ccccc3)OC1CC1C3CCC4=CC(=O)CCC4(C)C3CCC12C (configuration not stated) | 150
Nc1ccnc(N)c1 | 107
COc1ccccc1CCC(=O)O | 87
c1ncncn1 | 86
COC(=O)C(Cl)C(C)=O (configuration not stated) | -33

Compound | melting point [°C]
COC(=O)c1cc(Cl)c(NC(C)=O)cc1OC | 155
O=c1cc(CN2CCOCC2)c2cc(O)c(O)cc2o1 | 232
CC1(C)C=[N+]([O-])C(C)(C)N1O | 160 to 163
Brc1ccc2c(c1)Oc1cc(Br)ccc1O2 | 145
Nc1c(Br)cc(Br)cc1C=O | 136 to 139
CCSc1sc(C(=O)OC)c2c1C(=O)CC(C)(C)C2 | 116 to 119
O=C(O)C=Cc1cccnc1 | 233 to 237
CCOC(=O)c1[nH]c(C)c(CC)c1C | 87 to 88
Cn1nc(-c2ccc(S(=O)(=O)Cl)s2)cc1C(F)(F)F | 83 to 86
CC(CCC(=O)O)n1nc2ccccc2n1 (configuration not stated) | 73
O=C(Oc1c(F)c(F)c(F)c(F)c1F)c1ccc(OC2CCOCC2)nc1 | 114 to 118
CC12CCC(=O)C(Cl)=C1CCC1C2CCC2(C)C(O)CCC12 (configuration not stated) | 189
C=CC1=C(C=NNc2ccc([N+](=O)[O-])cc2[N+](=O)[O-])CCCC1 | 152 to 153
CCCCC(C(N)=O)n1nnc2ccccc21 (configuration not stated) | 118
C#CCCCCCCCCC | -25
CC(=O)OC[C@H]1O[C@@H](O[C@H]2[C@H](OC(C)=O)[C@@H](OC(C)=O)[C@@H](OC(C)=O)O[C@@H]2COC(C)=O)[C@H](OC(C)=O)[C@@H](OC(C)=O)[C@@H]1OC(C)=O | 230
COCC(=O)N(c1c(C)cccc1C)C(C)C(=O)OC (configuration not stated) | 71
O=S(=O)(Nc1cc(F)c(F)cc1F)C(F)(F)F | 58.5
CCSC(SCC)C(OC(C)=O)C(OC(C)=O)C(OC(C)=O)C(COC(C)=O)OC(C)=O (configuration not stated) | 111 to 112
Cc1nc(C(F)(F)F)ccc1C(=O)O | 137 to 142
NC(=NO)C(N)=NO | 200 to 204

Compound | melting point [°C]
COC1=C(OC)/C(=C/CN=[N+]=[N-])OC1=O | 55 to 57
ClC(Cl)=C(c1ccc(Cl)cc1)c1ccc(Cl)cc1 | 89
Cc1nn(C)c(NC(=O)CCl)c1Br | 151 to 153
CCC1COC(Cn2cncn2)(c2ccc(Cl)cc2Cl)O1 (configuration not stated) | 84
CCC(C)(C)c1ccc(O)cc1 | 95
NC(=S)Nc1ccc(F)c(F)c1F | 162 to 165
O=C(O)[C@@H]1CCCC[C@H]1C(=O)c1cccs1 (relative stereo) | 179 to 184
C=COC(=O)CCCCCCCCCCCCCCCCC | 36
NC(=O)C#CC#CC#CCO | 140
CCN1C(=O)OC(C)(C)C1=O | 76.5
CCCCc1c(C)nc(NCC)nc1OS(=O)(=O)N(C)C | 50.5
O=C(C(C(=O)N1CCCCC1)c1ccccc1)N1CCCCC1 | 144
C=C1CCC(=O)O1 | 18
O=Cc1ncc[nH]1 | 209
O=S(=O)(O)CCNC(CO)(CO)CO | 223 to 225
O=C1CCC(NC(=O)OCc2ccccc2)CC1 | 82
CC(=O)N1CC(C)=CC1=O | 89 to 90
c1ccc(-c2ccncc2)cc1 | 77.5
O=C(O)C=CC(=O)Nc1ccccc1 | 177
CC(Oc1ccc(Oc2ccc(Cl)cc2Cl)cc1)C(=O)O (configuration not stated) | 120
CCN(CC)C(=S)SC(=S)N(CC)CC | 31

Results, then the molecule that gave them:

melting point [°C] | Compound
178 | N#C/C(=N/Nc1ccccc1)c1nc(-c2ccc(Cl)cc2)cs1
233 | CC(=O)Nc1ccc(-c2ccc(N(Nc3ccccc3)C(C)=O)cc2)cc1
237 to 238 | Cc1nc(-c2ccc(C(F)(F)F)cc2)sc1C(=O)O
297 | Cn1c(=O)c(C2=NNC(=O)C2=Cc2c[nH]c3ccccc23)c(O)c2ccccc21
116 to 118 | COc1ccccc1C1CCN(c2ccc(C=O)cc2[N+](=O)[O-])CC1
248 | Cn1c(=O)c(C2=NNC(=O)C2=CNc2nccs2)c(O)c2ccccc21
222 to 224 | C/C=C/C1Nn2c(nnc2-c2cccc([N+](=O)[O-])c2)S1 (configuration not stated)
35 | COc1ccc(C=O)cc1F
237 to 240 | Sc1nnc(-c2ccco2)n1-c1ccc2c(c1)OCCO2
41.5 | CC1(C)c2ccccc2Oc2ccccc21
79.5 | CC(C)(C)c1ccc(C(C)(C)C)cc1
72 to 76 | c1ccc2c(c1)CCc1ccccc1C2
270 to 272 | CCOC(=O)C(C#N)=C(N)c1cc2cc(Br)ccc2oc1=O
108 | Nc1cccc2cc3ccccc3nc12
91 to 95 | COc1ccc(-c2nnc(CCl)o2)cc1
72 to 74 | O=Cc1ccc(-c2ccccc2OC(F)(F)F)o1
140 | Cc1ccc(N=Nc2ccc(C)cc2)cc1
183 | [O-][N+](=Nc1cccc(O)c1)c1cccc(O)c1
82.5 | O=C(C(=O)c1cccs1)c1cccs1
-9 | CCc1cccc(Cc2ccccc2)c1

melting point [°C] | Compound
93 | C(=NN=Cc1ccccc1)c1ccccc1
216 | Nc1ccc(O)c2c1C(=O)c1ccccc1C2=O
242 | COc1cc(N)c2c(c1N)C(=O)c1ccccc1C2=O
250 to 255 | O=Cc1ccc(C=CC(=O)O)cc1
112 | Cc1ccncc1CNC(=O)c1ccccc1
144 to 145 | COc1ccc(C(=O)C=Cc2ccc(-c3ccccc3OC)o2)cc1OC
75 to 78 | NCc1ccc(-n2cccn2)cc1
73 to 75 | CCOC(=O)ON=C(C(=O)c1ccccc1)c1ccccc1
116 | CC(=O)CCC1C(=O)N(c2ccccc2)N(c2ccccc2)C1=O
215 | COC(=O)c1cc2c(=O)oc3ccccc3c2nc1C
260 | CC(C)N1CSc2nnc(-c3ccc([N+](=O)[O-])cc3)n2C1
174 to 175 | CC(=O)C(=Nc1ccccc1)c1cc(C(=Nc2ccccc2)C(C)=O)c([N+](=O)[O-])cc1[N+](=O)[O-]
60 to 62 | Cc1c(Br)cc(C(=O)Cl)c(C)c1C
68 | N#CCc1ccc(OCc2ccccc2)cc1
106 to 107 | Nc1ccccc1-n1ccnc1
144 | CCCCOc1ccc(-c2nnc3n2NC(c2ccc(O)c(OC)c2)S3)cc1 (configuration not stated)
92.5 | CC(C)OC(=O)C1(S(=O)(=O)c2ccc(Cl)cc2)CCCC1
125 | Clc1ccc(C=NCCN=Cc2ccc(Cl)cc2)cc1
220 | NC12c3ccccc3C(c3ccccc31)c1ccccc12
126 | Cc1ccc(S(=O)(=O)NCCCN(CCCN(CCCNS(=O)(=O)c2ccc(C)cc2)S(=O)(=O)c2ccc(C)cc2)S(=O)(=O)c2ccc(C)cc2)cc1

melting point [°C] | Compound
132 | Nc1ccccc1C(=O)Nc1ccccc1
254 | O=C1c2ccccc2C(=O)N1c1n[nH]c2ncccc12
161 to 165 | Cc1ccc(C=C(Oc2ccccc2)c2nc3ccccc3s2)cc1
193 | O=[N+]([O-])c1cc([N+](=O)[O-])c(/C=C/c2ccccc2)cc1/C=C/c1ccccc1
-25 | CO[Si](OC)(OC)c1ccccc1
26.5 | CC1=CC(C)(C)Nc2ccccc21
151 to 152 | CC(=O)Nc1ccccc1-c1cc2ccccc2[nH]1
99.5 to 102 | Nc1cccc(-c2ncccn2)c1
164 | O=C(C1=NOC2C(=O)N(c3cccc([N+](=O)[O-])c3)C(=O)C12)c1cccs1 (configuration not stated)
208 to 211 | Cc1nc(-c2ccc(S(=O)(=O)N(C)C)cc2)c(-c2ccc(S(=O)(=O)N(C)C)cc2)o1
192 to 193 | O=C(O)c1ccc(Cn2cccn2)cc1
73 | Cc1ccc(Cl)cc1O
134 | O=C(SSC(=O)c1ccccc1)c1ccccc1
86 to 87 | N#CC(C#N)=Nc1ccccc1
140 | CC(=O)Oc1cccc(C(N)=O)c1
169 to 172 | CCOC(=O)c1c(NC(=S)Nc2ccc(Cl)cc2)sc2c1CCN(Cc1ccccc1)C2
126 | O=C(O)c1ccccc1C1c2ccc(O)cc2Oc2cc(O)ccc21
108 | CC(=O)/C=C1\NC(=O)c2ccccc21
-4.7 | C1=CC=CC=CC=C1
